According to US20060127329A1, “Tartar control oral care composition containing extract of magnolia” (Colgate-Palmolive Company, priority 2004, published 2006):

System: representative oral bacteria S. mutans, F. nucleatum, V. parvula, A. naslundii, P. gingivitis
Assay: in vitro test Minimal Inhibitory Concentration (MIC)
Assay type: cell-based
Conditions: no numbers given
From the text: The compositions of the present invention comprise at least one active compound found in an extract of magnolia. As referred to here, such an “extract” of magnolia is an extract from dried cortex, or bark, of a plant from the Magnoliaceae family, such as Magnolia officinalis, (hereinafter “magnolia”) or a synthetic or semi-synthetic equivalent of such an extract or an active component thereof. […] In other embodiments, the antibacterial ingredient comprises an extract of magnolia. […] It should be noted that any plant from the Magnoliaceae family is suitable for the present invention and may be used in alternate embodiments, preferably such that the extract comprises an antimicrobially effective concentration of a compound selected from the group consisting of magnolol, honokiol, tetrahydromagnolol, tetrahydrohonokiol, and mixtures thereof.

## CCCc1ccc(O)c(-c2cc(CCC)ccc2O)c1 [tetrahydromagnolol]
  bactericidal properties against representative oral bacteria: demonstrated bactericidal properties

## CCCc1ccc(O)c(-c2ccc(O)c(CCC)c2)c1 [tetrahydrohonokiol]
  bactericidal properties against representative oral bacteria: demonstrated bactericidal properties

## C=CCc1ccc(O)c(-c2ccc(O)c(CC=C)c2)c1 [honokiol]
  bactericidal properties against representative oral bacteria: demonstrated bactericidal properties

## C=CCc1ccc(O)c(-c2cc(CC=C)ccc2O)c1 [magnolol]
  bactericidal properties against representative oral bacteria: demonstrated bactericidal properties
